Results: patent US20260284275A1, “NANOGEL COMPRISING BIOACTIVE MOLECULES, THERAPEUTIC MOLECULES OR DRUGS TOGETHER WITH AN AMPHIPHILIC MOLECULE” (CM4CURE S.A., priority 2023, published 2026)

Columns and labels:
[1] = tested on: S. aureus (MRSA, ATCC 6538); test: Real-time microcalorimetry of bacterial growth in liquid medium; type: cell-based; conditions: Fluometacyl 10 or 20 μg/mL with hydroxypropyl-β-cyclodextrin 42 μg/mL, 24 h
Experimental: S. aureus (MRSA, ATCC 6538) was grown overnight in TSB (tryptic soy broth) medium, before being diluted 1×10^7 fold in the fresh TSB. Subsequently […] aliquots of diluted bacteria suspensions were supplemented with Fluometacyl® (10 or 20 μg/mL) or mixture of Fluometacyl® (10 or 20 μg/mL) and hydroxypropyl-β-cyclodextrin (42 μg/mL). Subsequently 300 μL of suspensions were placed into the dedicated non-activated inserts of a 48-well plate and allowed for growing for 24 h under static conditions at 37 C using Calscreener.
Curve A—control bacterial growth for S. aureus MRSA 10^−6; Curve B—Bacteria with Fluometacyl® (10 μg/mL); Curve C—Bacteria with Fluometacyl® (10 μg/mL) and hydroxypropyl-β-cyclodextrin (42 μg/mL); Curve D—Bacteria with Fluometacyl® (20 μg/mL); Curve E—Bacteria with Fluometacyl® (20 μg/mL) and hydroxypropyl-β-cyclodextrin (42 μg/mL).

[2] = tested on: S. aureus (ATCC BAA-1556, MRSA); test: Real-time microcalorimetry (Calscreener) of bacterial growth in TSB; type: cell-based; conditions: for bacterial growth (heat flow): 24 h, 37° C.
Experimental: S. aureus (ATCC BAA-1556, MRSA) was grown overnight in TSB (tryptic soy broth) medium, before being diluted 1×10^4 fold in fresh TSB. Subsequently […] aliquots of diluted bacteria suspensions were supplemented with 10 μg/mL and 20 μg/mL of respectively triafluocyl (Polpharma) alone or in the mixture with TPGS (MedChemExpress LLC (Europe)) (1:1 w/w). Both Triafluocyl and TPGS were prepared in absolute ethanol as already mentioned in the above examples and were refrigerated as master stocks in absolute ethanol. Triafluocyl, TPGS or ethanol (0.6% final conc.) as a vehicle were added to the bacterial suspensions to obtain the concentrations (10 μg/mL and 20 μg/m) followed by a brief vortexing. Bacterial aliquots were then distributed in the dedicated non-activated inserts of a 48-well plate and grown for 24 h under static conditions at 37° C. using Calscreener technology to measure bacterial growth and metabolic activity in Real-Time as described in https://cordis.europa.eu/project/id/784514.
In FIG. 6, the real-time microcalorimetric measurements of bacterial metabolic activity is expressed as the heat flow and represents bacterial growth in TSB medium. Solid line stands for control bacteria with a vehicle (0.6% ethanol); thick dashed line—bacteria treated with 10 μg/mL of triafluocyl; thick dotted line—bacteria treated with 20 μg/mL of triafluocyl; thin dashed line—bacteria treated with both triafluocyl and TPGS (10 μg/mL:10 μg/mL); thin dotted line—bacteria treated with both triafluocyl and TPGS (20 μg/mL:20 μg/mL).

With CC(O)COC[C@H]1O[C@@H]2O[C@H]3[C@H](O)[C@@H](O)[C@@H](O[C@H]4[C@H](O)[C@@H](O)[C@@H](O[C@H]5[C@H](O)[C@@H](O)[C@@H](O[C@H]6[C@H](O)[C@@H](O)[C@@H](O[C@H]7[C@H](O)[C@@H](O)[C@@H](O[C@H]8[C@H](O)[C@@H](O)[C@@H](O[C@H]1[C@H](O)[C@H]2O)O[C@@H]8COCC(C)O)O[C@@H]7COCC(C)O)O[C@@H]6COCC(C)O)O[C@@H]5COCC(C)O)O[C@@H]4COCC(C)O)O[C@@H]3COCC(C)O (stereo partly drawn) [hydroxypropyl-β-cyclodextrin] the “effect on the antibacterial activity of Fluometacyl in solution” value [1] was “didn't impair”.
With “D-α-tocopheryl polyethylene glycol succinate [TPGS]” the “effect of added TPGS on the inhibitory effect of triafluocyl on bacterial growth” value ([2]; TPGS at equivalent amount (1:1 w/w) to triafluocyl, 10 and 20 μg/mL) was “significantly reduced the inhibitory effect”.
For CCCSc1nc(N[C@@H]2C[C@H]2c2ccc(F)c(F)c2)c2nnn([C@@H]3C[C@H](OCCO)[C@@H](O)[C@H]3O)c2n1 [Triafluocyl], the “bacterial growth (heat flow)” value ([2]; 10 μg/mL) was “significantly reduces” and the “bacterial growth (heat flow)” value ([2]; 20 μg/mL) was “fully inhibited”.
